From patent US8952157B2, “Apoptosis-inducing agents for the treatment of cancer and immune and autoimmune diseases” (AbbVie Inc., priority 2008, dated 2015) come the findings set out here.

As usually defined, the Ki is a measure of affinity in units of concentration, obtained from inhibition or displacement. A higher Ki goes with lower affinity.

GST-Bcl-2, sequence (P10415 whole entry): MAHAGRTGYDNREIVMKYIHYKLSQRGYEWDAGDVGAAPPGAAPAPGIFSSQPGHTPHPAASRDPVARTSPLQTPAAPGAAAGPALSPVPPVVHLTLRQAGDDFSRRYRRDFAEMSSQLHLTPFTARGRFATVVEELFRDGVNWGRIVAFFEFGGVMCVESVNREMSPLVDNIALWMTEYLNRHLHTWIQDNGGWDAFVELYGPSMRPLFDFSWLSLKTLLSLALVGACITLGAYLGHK

The assay concerns the target GST-Bcl-2 (Homo sapiens (Human), UniProt P10415). Kind of assay: Time Resolved-Fluorescence Resonance Energy Transfer (TR-FRET) Bcl-2 binding assay. The note with it: GST-Bcl-2 1 nM, F-Bak peptide probe 100 nM, Tb-anti-GST antibody 1 nM; Ki by Wang's equation. In outline: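 Competition TR-FRET: GST-Bcl-2 with fluorescent Bak peptide probe and Tb-anti-GST antibody, compounds serially diluted from 50 μM (2× start, 10% DMSO).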
(In general: Time-resolved FRET reads energy transfer from a long-lived donor to a nearby acceptor.)
Take `CC1(C)CCC(CN2CCN(c3ccc(C(=O)NS(=O)(=O)c4ccc(NCC5CCOCC5)c([N+](=O)[O-])c4)c(Oc4cccc5c4CCN(C(=O)OC(C)(C)C)C5)c3)CC2)=C(c2ccc(Cl)cc2)C1` [Example 260, tert-butyl 5-(5-(4-{[2-(4-chlorophenyl)-4,4-dimethylcyclohex-1-en-1-yl]methyl}piperazin-1-yl)-2-{[({3-nitro-4-[(tetrahydro-2H-pyran-4-ylmethyl)amino]phenyl}sulfonyl)amino]carbonyl}phenoxy)-3,4-dihydro isoquinoline-2(H)-carboxylate]: the Ki was determined as 11.8 nM. This counts as double-digit nanomolar.

In the case of `CC1(C)CCC(CN2CCN(c3ccc(C(=O)NS(=O)(=O)c4ccc(NC5CCN(C6CCOCC6)CC5)c([N+](=O)[O-])c4)c(Oc4ccc(N)nc4)c3)CC2)=C(c2ccc(Cl)cc2)C1` [Example 261, 2-[(6-aminopyridin-3-yl)oxy]-4-(4-{[2-(4-chlorophenyl)-4,4-dimethylcyclohex-1-en-1-yl]methyl}piperazin-1-yl)-N-({3-nitro-4-[(1-tetrahydro-2H-pyran-4-ylpiperidin-4-yl)amino]phenyl}sulfonyl)benzamide], the affinity, expressed as Ki, was 0.186 nM.

With `CC1(C)CCC(c2ccc(Cl)cc2)=C(CN2CCN(c3ccc(C(=O)NS(=O)(=O)c4ccc(NCC5CCOCC5)c([N+](=O)[O-])c4)c(Oc4cc5cc[nH]c5cc4F)c3)CC2)C1` [Example 262, 4-(4-{[2-(4-chlorophenyl)-5,5-dimethylcyclohex-1-en-1-yl]methyl}piperazin-1-yl)-2-[(6-fluoro-1H-indol-5-yl)oxy]-N-({3-nitro-4-[(tetrahydro-2H-pyran-4-ylmethyl)amino]phenyl}sulfonyl)benzamide], the Ki was determined as 0.276 nM.

As for `COCCNc1ccc(S(=O)(=O)NC(=O)c2ccc(N3CCN(CC4=C(c5ccc(Cl)cc5)CC(C)(C)CC4)CC3)cc2Oc2cc3cc[nH]c3cc2F)cc1[N+](=O)[O-]` [Example 263, 4-(4-{[2-(4-chlorophenyl)-4,4-dimethylcyclohex-1-en-1-yl]methyl}piperazin-1-yl)-2-[(6-fluoro-1H-indol-5-yl)oxy]-N-({4-[(2-methoxyethyl)amino]-3-nitrophenyl}sulfonyl)benzamide], the Ki is 0.11 nM.

As to `CC1(C)CCC(CN2CCN(c3ccc(C(=O)NS(=O)(=O)c4ccc(OCC5CCOCC5)c([N+](=O)[O-])c4)c(Oc4cc5cc[nH]c5cc4F)c3)CC2)=C(c2ccc(Cl)cc2)C1` [Example 264, 4-(4-{[2-(4-chlorophenyl)-4,4-dimethylcyclohex-1-en-1-yl]methyl}piperazin-1-yl)-2-[(6-fluoro-1H-indol-5-yl)oxy]-N-{[3-nitro-4-(tetrahydro-2H-pyran-4-ylmethoxy)phenyl]sulfonyl}benzamide], the Ki was 0.068 nM.

The molecule `CC1(C)CCC(CN2CCN(c3ccc(C(=O)NS(=O)(=O)c4ccc(NCC5CCOCC5)c([N+](=O)[O-])c4)c(Oc4ccc5[nH]cc(Cl)c5c4)c3)CC2)=C(c2ccc(Cl)cc2)C1` [Example 265, 2-[(3-chloro-1H-indol-5-yl)oxy]-4-(4-{[2-(4-chlorophenyl)-4,4-dimethylcyclohex-1-en-1-yl]methyl}piperazin-1-yl)-N-({3-nitro-4-[(tetrahydro-2H-pyran-4-ylmethyl)amino]phenyl}sulfonyl)benzamide] came in with a Ki of 0.363 nM.

`CC1(C)CCC(CN2CCN(c3ccc(C(=O)NS(=O)(=O)c4ccc(NCC5CCOCC5)c([N+](=O)[O-])c4)c(Oc4cccc5[nH]cc(Cl)c45)c3)CC2)=C(c2ccc(Cl)cc2)C1` [Example 266, 2-[(3-chloro-1H-indol-4-yl)oxy]-4-(4-{[2-(4-chlorophenyl)-4,4-dimethylcyclohex-1-en-1-yl]methyl}piperazin-1-yl)-N-({3-nitro-4-[(tetrahydro-2H-pyran-4-ylmethyl)amino]phenyl}sulfonyl)benzamide] registered a Ki of 0.81 nM.

Consider `CC1(C)CCC(CN2CCN(c3ccc(C(=O)NS(=O)(=O)c4ccc(NCC5CCOCC5)c([N+](=O)[O-])c4)c(Oc4ccc5c(c4)CC(=O)N5)c3)CC2)=C(c2ccc(Cl)cc2)C1` [Example 267, 4-(4-{[2-(4-chlorophenyl)-4,4-dimethylcyclohex-1-en-1-yl]methyl}piperazin-1-yl)-N-({3-nitro-4-[(tetrahydro-2H-pyran-4-ylmethyl)amino]phenyl}sulfonyl)-2-[(2-oxo-2,3-dihydro-1H-indol-5-yl)oxy]benzamide], for which the Ki is 28.4 nM. Against the preceding molecule, the Ki is about 35-fold higher.

Turning to `CC1(C)CCC(CN2CCN(c3ccc(C(=O)NS(=O)(=O)c4ccc(NCC5CCOCC5)c([N+](=O)[O-])c4)c(Oc4ccc(NC(=O)OC(C)(C)C)nc4)c3)CC2)=C(c2ccc(Cl)cc2)C1` [Example 270, tert-butyl 5-(5-(4-{[2-(4-chlorophenyl)-4,4-dimethylcyclohex-1-en-1-yl]methyl}piperazin-1-yl)-2-{[({3-nitro-4-[(tetrahydro-2H-pyran-4-ylmethyl)amino]phenyl}sulfonyl)amino]carbonyl}phenoxy)pyridin-2-ylcarbamate], the Ki was more than 1200 nM.

In turn, `CC1(C)CCC(CN2CCN(c3ccc(C(=O)NS(=O)(=O)c4ccc(NC5CCN(C6CCOCC6)CC5)c([N+](=O)[O-])c4)c(Oc4ccnc(NC(=O)OC(C)(C)C)c4)c3)CC2)=C(c2ccc(Cl)cc2)C1` [Example 271, tert-butyl 4-(5-(4-{[2-(4-chlorophenyl)-4,4-dimethylcyclohex-1-en-1-yl]methyl}piperazin-1-yl)-2-{[({3-nitro-4-[(1-tetrahydro-2H-pyran-4-ylpiperidin-4-yl)amino]phenyl}sulfonyl)amino]carbonyl}phenoxy)pyridin-2-ylcarbamate] yielded a Ki of 1.91 nM.

As for `CC1(C)CCC(CN2CCN(c3ccc(C(=O)NS(=O)(=O)c4ccc(NCC5CCOCC5)c([N+](=O)[O-])c4)c(Oc4ccc(N)nc4)c3)CC2)=C(c2ccc(Cl)cc2)C1` [Example 272, 2-[(6-aminopyridin-3-yl)oxy]-4-(4-{[2-(4-chlorophenyl)-4,4-dimethylcyclohex-1-en-1-yl]methyl}piperazin-1-yl)-N-({3-nitro-4-[(tetrahydro-2H-pyran-4-ylmethyl)amino]phenyl}sulfonyl)benzamide], the Ki was determined as 1.24 nM. This Ki lies about 1.5-fold lower than the previous one.

Regarding `CC1(C)CCC(CN2CCN(c3ccc(C(=O)NS(=O)(=O)c4ccc(NC5CCN(C6CCOCC6)CC5)c([N+](=O)[O-])c4)c(Oc4ccnc(N)c4)c3)CC2)=C(c2ccc(Cl)cc2)C1` [Example 273, 2-[(2-aminopyridin-4-yl)oxy]-4-(4-{[2-(4-chlorophenyl)-4,4-dimethylcyclohex-1-en-1-yl]methyl}piperazin-1-yl)-N-({3-nitro-4-[(1-tetrahydro-2H-pyran-4-ylpiperidin-4-yl)amino]phenyl}sulfonyl)benzamide], the affinity corresponds to a Ki of 0.516 nM.

`CC1(C)CCC(CN2CCN(c3ccc(C(=O)NS(=O)(=O)c4ccc(NCC5CCOCC5)c([N+](=O)[O-])c4)c(Oc4cncc(Br)c4)c3)CC2)=C(c2ccc(Cl)cc2)C1` [Example 274, 2-[(5-bromopyridin-3-yl)oxy]-4-(4-{[2-(4-chlorophenyl)-4,4-dimethylcyclohex-1-en-1-yl]methyl}piperazin-1-yl)-N-({3-nitro-4-[(tetrahydro-2H-pyran-4-ylmethyl)amino]phenyl}sulfonyl)benzamide] displayed a Ki of 0.936 nM.
